Experimental data from patent US8710099B2, “Treatment of cancer using the sodium salt of a benzoic acid derivative” (New York University, priority 2009, dated 2014).

Assays:
B16F10 melanoma cells [1] = test: In vivo tumor growth of B16F10 xenografts in nude mice; conditions: daily i.p. for 15 days, TAXOL® 0.5 μM, C-45 100 μg; FIG. 4
Experimental: In addition, tumor growth in vivo of xenografts of B16F10 melanoma cells in nude mice was determined Briefly, subconfluent cultures of B16F10 cells were harvested, washed, and resuspended in sterile PBS. Female nude mice were injected subcutaneously with 1×10^6 cells per mouse and tumors were allowed to grow for 3 days. After 3 days, mice were either untreated or treated daily for 15 days by intraperitoneal injection of TAXOL® (0.5 μM), C-45 (100 μg), or a combination of TAXOL® and C-45. Tumor growth was determined weekly by caliper measurements. After 15 days, the mice were sacrificed and tumor volume was determined by standard methods using the formula […], where V=volume, L=length, and W=width.

[2] = system: tyrosinase (from mushrooms); test: Purified tyrosinase activity, DOPAchrome formation; assay type: biochemical; conditions: 8.0 mM, up to 10 minutes; FIG. 2
Experimental: Activity of purified tyrosinase was measured by monitoring the formation of DOPAchrome. Briefly, a fixed concentration of L-DOPA (8.0 mM) was incubated with 800 U/ml tyrosinase (from mushrooms-Sigma, St. Louis, Mo.) in the absence or presence of increasing concentrations of PABA, compound 44 (C-44) and compound 45 (C-45) (see FIG. 1 for structures) for indicated time points (see FIG. 2 for concentrations and time points). At each time point, 100 μl of the reaction mixture was measured. Data points represent the mean optical density at 475 nm±SD from triplicate wells.

B16F10 melanoma cells [3] = test: Chick embryo tumor growth model; assay type: in vivo, chick embryos; conditions: for growth of the B16F10 tumors: 50 μg/ml C-45, TAXOL® 0.01 μM, FIG. 5B
Experimental: The chick embryo tumor growth model was used to determine whether C-45 enhances the ability of TAXOL® or ionizing radiation to inhibit tumor growth. Briefly, B16F10 melanoma cells were cultured in growth medium in the presence or absence of 50 μg/ml C-45 for at least 7 days. Following harvesting and washing, about 2×10^5 tumor cells were implanted onto the chorioallontoic membranes of 10 day-old chick embryos and incubated for at least 24 hours. Following incubation, the embryos were treated with either a single fractionated dose of radiation (5.0 Gy) or TAXOL® (paclitaxel) (0.01 μM) and incubated for an additional 7 days. The embryos were sacrificed and tumors were resected and weighed (5-10 embryos per condition).

[4] = system: Lewis Lung carcinoma cells; test: Tumor cell proliferation, WST-1 tetrazolium salt cleavage; assay type: cell-based; conditions: 50 μg/ml test compound, 0.01 μM TAXOL®; vs untreated control; FIG. 3B
Experimental: (§1) Tumor cell proliferation was assessed by monitoring mitochondrial dehydrogenase activity as detected by tetrazolium salt cleavage using a commercially available kit (WST-1; Roche, Indianapolis, Ind.). Briefly, B16F10 melanoma cells, Lewis Lung carcinoma cells, and 4T1 breast carcinoma cells (1×10^6) were resuspended in PABA-free growth medium supplemented with 2.0% fetal bovine serum and 50 μg/ml of test compound (as shown in FIG. 1) Following incubation for 3 days, the cells were either treated or not treated with 0.01 μM TAXOL® and incubated for an additional 48 hours. Proliferation was measured; data points represent the mean optical density at 490 nm±SD from triplicate wells.

[5] = system: 4T1 breast carcinoma cells; test: as above; assay type: cell-based; conditions: 50 μg/ml test compound, 0.01 μM TAXOL®; vs untreated control; FIG. 3C
Experimental: as §1

B16F10 melanoma cells [6] = test: as above; assay type: cell-based; conditions: 50 μg/ml test compound, 0.01 μM TAXOL®; vs untreated control; FIG. 3A
Experimental: as §1

PXR/SXR receptor = target: T1, PXR/SXR receptor (Homo sapiens, UniProt O75469); conditions: Moore et al., Mol. Endocrinol. 2002; cited from earlier work
T1 sequence (O75469 1-434): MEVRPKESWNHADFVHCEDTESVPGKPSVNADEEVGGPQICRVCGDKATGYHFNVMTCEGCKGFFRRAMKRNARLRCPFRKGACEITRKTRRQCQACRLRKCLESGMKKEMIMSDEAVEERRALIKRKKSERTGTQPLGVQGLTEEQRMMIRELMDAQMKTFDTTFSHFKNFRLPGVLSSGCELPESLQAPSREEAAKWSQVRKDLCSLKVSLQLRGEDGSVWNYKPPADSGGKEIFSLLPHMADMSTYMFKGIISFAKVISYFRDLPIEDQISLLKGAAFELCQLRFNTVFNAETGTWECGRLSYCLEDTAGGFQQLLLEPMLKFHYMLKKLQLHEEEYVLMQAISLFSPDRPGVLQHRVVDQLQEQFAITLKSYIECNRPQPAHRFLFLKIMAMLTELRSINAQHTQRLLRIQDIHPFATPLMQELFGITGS

[7] = system: G361 human melanoma cells; test: Protein expression in PABA-treated G361 melanoma cells (data not shown); assay type: cell-based; conditions: G361 cells treated with PABA

| Compound | in vivo tumor growth compared to untreated controls (B16F10 melanoma cells [1]) | tyrosinase activity [2] | growth of the B16F10 tumors (B16F10 melanoma cells [3]) | tumor growth in vivo, combination with radiation (B16F10 melanoma cells [3]; 50 μg/ml C-45 plus single dose of radiation 5.0 Gy, FIG. 5A) | tumor weight (B16F10 melanoma cells [3]; cells cultured with 50 μg/ml C-45, C-45 alone, FIG. 5A) | in vitro proliferation of Lewis Lung carcinoma cells [4] | in vitro proliferation of 4T1 breast carcinoma cells [5] | in vitro proliferation of B16F10 cells (B16F10 melanoma cells [6]) | binding to the PXR/SXR receptor (PXR/SXR receptor) | expression of cell-cycle progression checkpoint protein CDC25A [7] | protein expression of DNA repair protein BRCA-2 [7] |
| --- | --- | --- | --- | --- | --- | --- | --- | --- | --- | --- | --- |
| C=CCNc1ccc(C(=O)O)cc1 [C-45, 4-allylaminobenzoic acid] | neither TAXOL® nor C-45 inhibited in vivo tumor growth | inhibited tyrosinase activity | inhibited the growth of the B16F10 tumors significantly | even more effective at inhibiting tumor growth | reduced tumor weight significantly | inhibited in vitro proliferation | inhibited in vitro proliferation | inhibited in vitro proliferation | – | – | – |
| Nc1ccc(C(=O)O)cc1 [PABA, para-amino-benzoic-acid] | – | inhibited tyrosinase activity | – | – | – | – | – | – | bind to the PXR/SXR receptor | increase expression | decreased protein expression |
| CC(=O)O[C@H]1C(=O)[C@@]2(C)[C@H]([C@H](OC(=O)c3ccccc3)[C@]3(O)C[C@H](OC(=O)[C@H](O)[C@@H](NC(=O)c4ccccc4)c4ccccc4)C(C)=C1C3(C)C)[C@]1(OC(C)=O)CO[C@@H]1C[C@@H]2O [TAXOL®, paclitaxel, reference compound] | neither TAXOL® nor C-45 inhibited in vivo tumor growth | – | inhibited the growth of the B16F10 tumors significantly | – | – | inhibited in vitro proliferation | inhibited in vitro proliferation | inhibited in vitro proliferation | – | – | – |
